Source: PubChem BioAssay (NCI)
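Method: 48-hour compound exposure of cells in 96-well plates, five concentrations, linear interpolation of endpoints. GI50 is the concentration that inhibits growth by half. TGI marks complete inhibition of growth.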

Columns and labels:
Experiment in all cases: NCI anticancer screen, dose series, 48 h
IGROV1 ovarian = test system: IGROV1 ovarian
RXF 393 renal = test system: RXF 393 renal
OVCAR-4 ovarian = test system: OVCAR-4 ovarian
LOX IMVI melanoma = test system: LOX IMVI melanoma
MDA-MB-468 breast = test system: MDA-MB-468 breast
SR leukemia = test system: SR leukemia
BT-549 breast = test system: BT-549 breast
MCF7 breast = test system: MCF7 breast
UACC-62 melanoma = test system: UACC-62 melanoma
OVCAR-3 ovarian = test system: OVCAR-3 ovarian
SK-MEL-5 melanoma = test system: SK-MEL-5 melanoma
SK-MEL-28 melanoma = test system: SK-MEL-28 melanoma
T-47D breast = test system: T-47D breast
SN12C renal = test system: SN12C renal
NCI/ADR-RES ovarian = test system: NCI/ADR-RES ovarian
HCC-2998 colon = test system: HCC-2998 colon
TK-10 renal = test system: TK-10 renal
EKVX NSCLC = test system: EKVX NSCLC
A549 NSCLC = test system: A549 NSCLC
HCT-15 colon = test system: HCT-15 colon
HS 578T breast = test system: HS 578T breast
HT29 colon = test system: HT29 colon
K-562 leukemia = test system: K-562 leukemia
SW-620 colon = test system: SW-620 colon
SK-MEL-2 melanoma = test system: SK-MEL-2 melanoma
UO-31 renal = test system: UO-31 renal
M14 melanoma = test system: M14 melanoma
MDA-MB-435 = test system: MDA-MB-435
A498 renal = test system: A498 renal
MOLT-4 leukemia = test system: MOLT-4 leukemia
SNB-75 CNS = test system: SNB-75 CNS
MDA-MB-231 breast = test system: MDA-MB-231 breast
UACC-257 melanoma = test system: UACC-257 melanoma
RPMI-8226 leukemia = test system: RPMI-8226 leukemia
786-0 renal = test system: 786-0 renal
COLO 205 colon = test system: COLO 205 colon
DU-145 prostate = test system: DU-145 prostate
ACHN renal = test system: ACHN renal
SK-OV-3 ovarian = test system: SK-OV-3 ovarian
NCI-H23 lung = test system: NCI-H23 lung
HCT-116 colon = test system: HCT-116 colon
NCI-H522 lung = test system: NCI-H522 lung
SF-539 CNS = test system: SF-539 CNS
MALME-3M melanoma = test system: MALME-3M melanoma
SF-268 CNS = test system: SF-268 CNS
HOP-62 NSCLC = test system: HOP-62 NSCLC
NCI-H460 lung = test system: NCI-H460 lung
PC-3 prostate = test system: PC-3 prostate
CCRF-CEM leukemia = test system: CCRF-CEM leukemia
U251 CNS = test system: U251 CNS
OVCAR-8 ovarian = test system: OVCAR-8 ovarian
HL-60(TB) leukemia = test system: HL-60(TB) leukemia
KM12 colon = test system: KM12 colon
HOP-92 NSCLC = test system: HOP-92 NSCLC
SF-295 CNS = test system: SF-295 CNS
NCI-H226 lung = test system: NCI-H226 lung
OVCAR-5 ovarian = test system: OVCAR-5 ovarian
SNB-19 CNS = test system: SNB-19 CNS
CAKI-1 renal = test system: CAKI-1 renal

CCCCCc1ccc(S(=O)(=O)N(C(C)=O)c2cc(-c3csc(N(C)C(C)=O)n3)ccc2N2CCN(C)CC2)cc1
GI50 (IGROV1 ovarian): 9.04 µM
TGI (IGROV1 ovarian): 16.9 µM
GI50 (RXF 393 renal): 3.99 µM
TGI (RXF 393 renal): 13.3 µM
GI50 (OVCAR-4 ovarian): 9.87 µM
TGI (OVCAR-4 ovarian): 23.6 µM
GI50 (LOX IMVI melanoma): 1010 nM
TGI (LOX IMVI melanoma): 1900 nM
GI50 (MDA-MB-468 breast): 2990 nM
TGI (MDA-MB-468 breast): 11.9 µM
GI50 (SR leukemia): 1230 nM
TGI (SR leukemia): 4.07 µM
GI50 (BT-549 breast): 8.89 µM
TGI (BT-549 breast): 17.9 µM
GI50 (MCF7 breast): 2220 nM
TGI (MCF7 breast): 8.7 µM
GI50 (UACC-62 melanoma): 9.44 µM
TGI (UACC-62 melanoma): 17.4 µM
GI50 (OVCAR-3 ovarian): 6.4 µM
TGI (OVCAR-3 ovarian): 15.1 µM
GI50 (SK-MEL-5 melanoma): 7.04 µM
TGI (SK-MEL-5 melanoma): 14.4 µM
GI50 (SK-MEL-28 melanoma): 7.98 µM
TGI (SK-MEL-28 melanoma): 15.6 µM
GI50 (T-47D breast): 7.66 µM
TGI (T-47D breast): 18 µM
GI50 (SN12C renal): 7.7 µM
TGI (SN12C renal): 16.2 µM
GI50 (NCI/ADR-RES ovarian): 8.01 µM
TGI (NCI/ADR-RES ovarian): 17.3 µM
GI50 (HCC-2998 colon): 6 µM
TGI (HCC-2998 colon): 13.2 µM
GI50 (TK-10 renal): 9.62 µM
TGI (TK-10 renal): 17.9 µM
GI50 (EKVX NSCLC): 7.7 µM
TGI (EKVX NSCLC): 15.8 µM
GI50 (A549 NSCLC): 6.37 µM
TGI (A549 NSCLC): 13.8 µM
GI50 (HCT-15 colon): 2130 nM
TGI (HCT-15 colon): 8.02 µM
GI50 (HS 578T breast): 8.77 µM
TGI (HS 578T breast): 25.6 µM
GI50 (HT29 colon): 2110 nM
TGI (HT29 colon): 7.89 µM
GI50 (K-562 leukemia): 1530 nM
TGI (K-562 leukemia): 59.3 µM
GI50 (SW-620 colon): 1510 nM
TGI (SW-620 colon): 5.99 µM
GI50 (SK-MEL-2 melanoma): 10.2 µM
TGI (SK-MEL-2 melanoma): 19 µM
GI50 (UO-31 renal): 7.22 µM
TGI (UO-31 renal): 14.6 µM
GI50 (M14 melanoma): 3.25 µM
TGI (M14 melanoma): 12.2 µM
GI50 (MDA-MB-435): 2970 nM
TGI (MDA-MB-435): 11.4 µM
GI50 (A498 renal): 8.43 µM
TGI (A498 renal): 16.2 µM
GI50 (MOLT-4 leukemia): 2310 nM
TGI (MOLT-4 leukemia): 11.1 µM
GI50 (SNB-75 CNS): 6.47 µM
TGI (SNB-75 CNS): 14.2 µM
GI50 (MDA-MB-231 breast): 4.01 µM
TGI (MDA-MB-231 breast): 11.8 µM
GI50 (UACC-257 melanoma): 7.51 µM
TGI (UACC-257 melanoma): 15.5 µM
GI50 (RPMI-8226 leukemia): 4.61 µM
TGI (RPMI-8226 leukemia): 19.1 µM
GI50 (786-0 renal): 4.46 µM
TGI (786-0 renal): 13.5 µM
GI50 (COLO 205 colon): 6.54 µM
TGI (COLO 205 colon): 15.5 µM
GI50 (DU-145 prostate): 7.52 µM
TGI (DU-145 prostate): 15.4 µM
GI50 (ACHN renal): 8.86 µM
TGI (ACHN renal): 16.7 µM
GI50 (SK-OV-3 ovarian): 9.9 µM
TGI (SK-OV-3 ovarian): 18.1 µM
GI50 (NCI-H23 lung): 8.92 µM
TGI (NCI-H23 lung): 17.3 µM
GI50 (HCT-116 colon): 2170 nM
TGI (HCT-116 colon): 8.36 µM
GI50 (NCI-H522 lung): 8.69 µM
TGI (NCI-H522 lung): 17.3 µM
GI50 (SF-539 CNS): 7.18 µM
TGI (SF-539 CNS): 14.5 µM
GI50 (MALME-3M melanoma): 7.61 µM
TGI (MALME-3M melanoma): 15.3 µM
GI50 (SF-268 CNS): 7.35 µM
TGI (SF-268 CNS): 18 µM
GI50 (HOP-62 NSCLC): 8.71 µM
TGI (HOP-62 NSCLC): 17 µM
GI50 (NCI-H460 lung): 1700 nM
TGI (NCI-H460 lung): 6.22 µM
GI50 (PC-3 prostate): 6.48 µM
TGI (PC-3 prostate): 16.3 µM
GI50 (CCRF-CEM leukemia): 3.63 µM
TGI (CCRF-CEM leukemia): 13.7 µM
GI50 (U251 CNS): 7.12 µM
TGI (U251 CNS): 14.7 µM
GI50 (OVCAR-8 ovarian): 9.42 µM
TGI (OVCAR-8 ovarian): 19.5 µM
GI50 (HL-60(TB) leukemia): 1570 nM
TGI (HL-60(TB) leukemia): 6.24 µM
GI50 (KM12 colon): 7.83 µM
TGI (KM12 colon): 17.2 µM
GI50 (HOP-92 NSCLC): 5.97 µM
TGI (HOP-92 NSCLC): 16 µM
GI50 (SF-295 CNS): 2560 nM
TGI (SF-295 CNS): 10.2 µM
GI50 (NCI-H226 lung): 10.6 µM
TGI (NCI-H226 lung): 24.1 µM
GI50 (OVCAR-5 ovarian): 8.44 µM
TGI (OVCAR-5 ovarian): 16.2 µM
GI50 (SNB-19 CNS): 8.81 µM
TGI (SNB-19 CNS): 16.6 µM
GI50 (CAKI-1 renal): 6.19 µM
TGI (CAKI-1 renal): 13.6 µM
